We go through three compounds from article PMC5992141, “Discovery of pancreastatin inhibitor PSTi8 for the treatment of insulin resistance and diabetes: studies in rodent models of diabetes mellitus” (Scientific Reports, 2018).

Residues, ends and D or L forms follow the SMILES beside them.

The target of series [1] is T1, GRP78 receptor (Homo sapiens, UniProt P11021). Kind of series: GRP78 ATPase enzymatic activity (Malachite green-phosphate assay). Type of series: biochemical. On the set-up: purchased Abcam Inc., Cambridge, MA ab78432. The settings on record: PSTi8 5 µM with PST 1 µM, GRP78 0.25 µM, 100 µM ATP, 37 °C, 30 min. Here is the method: To determine that PSTi8 inhibit PST inhibitory action on GRP78 ATPase activity, we perform Concentration-dependent spectrophotometric assays using recombinant human GRP78 protein (catalog # ab78432, Abcam Inc., Cambridge, MA). PSTi8 was co-incubated with PST (1 µM) at different doses (1, 2.5 and 5 µM) in 50 µl of assay buffer (20 mM Tris, pH 7.5, 50 mM KCl, 1.5 mM MgCl2) containing GRP78 protein (0.25 µM). The reaction was started by adding 100 µM ATP and incubated at 37 °C for 30 min. On ATP hydrolysis free phosphate (Pi) was measured by a Malachite green-phosphate assay (catalog #10009325, Cayman)[11].
T1 sequence (P11021 19-654): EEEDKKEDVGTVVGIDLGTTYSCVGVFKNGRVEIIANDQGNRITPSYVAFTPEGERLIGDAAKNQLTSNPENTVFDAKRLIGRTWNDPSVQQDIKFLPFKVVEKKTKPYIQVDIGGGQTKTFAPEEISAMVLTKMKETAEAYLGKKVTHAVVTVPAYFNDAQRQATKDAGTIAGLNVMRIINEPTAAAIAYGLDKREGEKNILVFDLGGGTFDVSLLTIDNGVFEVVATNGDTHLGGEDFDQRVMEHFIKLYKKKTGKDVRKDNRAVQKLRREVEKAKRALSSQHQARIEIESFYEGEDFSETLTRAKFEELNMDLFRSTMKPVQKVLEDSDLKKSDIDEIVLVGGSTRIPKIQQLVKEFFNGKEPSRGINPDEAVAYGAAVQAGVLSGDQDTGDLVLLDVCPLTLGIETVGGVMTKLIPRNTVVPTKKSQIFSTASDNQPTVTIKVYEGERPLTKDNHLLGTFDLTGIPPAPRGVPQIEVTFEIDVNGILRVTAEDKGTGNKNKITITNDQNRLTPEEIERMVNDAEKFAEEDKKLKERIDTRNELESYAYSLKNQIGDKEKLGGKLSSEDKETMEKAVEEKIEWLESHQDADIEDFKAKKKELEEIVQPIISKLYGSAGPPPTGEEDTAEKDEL

Another series concerns C57Bl/6 mice. Kind of series: Glucose reduction experiment, normoglycemic mice. Type of series: in vivo. The note with it: control C57Bl/6 mice (normoglycemic), acute i.p. 5 mg/kg. Here is the method: (§1) All animal experiments were performed according to protocols approved by Institutional Animal Ethics Committee (IAEC approval no. IAEC/2012/31-A), CSIR-Central Drug Research Institute (CSIR-CDRI, India). Male C57BL/6 mice (8–10 weeks, 15–20 g) and male db/db mice (10–12 weeks, 45–50 g) were obtained from Laboratory of Animal Division, CSIR-CDRI. […] After successful of model development diabetic mice divided in two groups, vehicle control group receive saline and treated group receive PSTi8. After acute (5 mg/kg) and chronic (2 mg/kg) treatment of PSTi8 for 10 days, mice were fasted for 6 hr before experiments and then sacrificed to collect plasma and tissues, which were snap frozen in liquid nitrogen.

Series [2] is described as follows: In-vivo pharmacokinetic study in db/db mice. The settings on record: i.p. 5 mg/kg, SPE, LC-MS/MS. How it is done: PSTi8 (5 mg/kg) was administered (i.p) in db/db mice for PK study. After dosing, blood samples were collected at different time points. Plasma samples (100 µL) were processed using the solid phase extraction (SPE). The 100 µL of eluted SPE samples were injected into the liquid chromatography tandem mass spectrometry (LC-MS/MS) (API 4000QTRAP, ABSciex, Canada) for analysis. The PK profile and parameters were evaluated by non-compartmental model approach using Pheonix 6.3 WinNonlin(Pharsight Corporation, USA).

Series [3] concerns the target T1, GRP78 receptor. Kind of series: Competitive binding with sulphorhodamine labelled PST and PSTi8 in HepG2 cells. On the set-up: endogenous in cells; host or cells: HepG2. How it is done: Sulphorhodamine B labelled PST and PSTi8 were synthesized and purified from Genpro Biotech, India. In HepG2 cells, the competitive binding assay of PST and PSTi8 were performed and the labelled PST and/or PSTi8 concentrations were measured at 568 nm and 584 nm, respectively.

The test system of series [4] is HFrD-fed STZ induced IR mice. Briefly: i.p. insulin tolerance test (ITT), HFrD-fed mice. Type of series: in vivo. The settings on record: 6 h fasted, mean ± s.e.m., n = 6. How it is done:
as §1
(§2) i.p GTT, i.p ITT and i.p PTT were carried out in 6 hr fasted mice. The blood glucose level was measured from tail tip using Contour TS blood glucose meter. The AUC is calculated using GraphPad Prism 5.0 software[4],[13].

Series [5] deals with HFrD-fed STZ induced IR mice. Briefly: i.p. glucose tolerance test (GTT), HFrD-fed mice. Type of series: in vivo. The settings on record: 6 h fasted, mean ± s.e.m., n = 6. Here is the method: as §1, §2

As usually defined, the inhibition is the share of the control response that was lost under treatment. A high value points to strong suppression. On to `CSCC[C@H](NC(=O)[C@H](CCC(=O)O)NC(=O)[C@H](CCC(=O)O)NC(=O)[C@H](CCC(=O)O)NC(=O)[C@H](CCC(=O)O)NC(=O)[C@H](CCC(=O)O)NC(=O)[C@H](CCCCN)NC(=O)[C@H](CCC(N)=O)NC(=O)[C@H](CCC(N)=O)NC(=O)[C@H](CO)NC(=O)[C@H](Cc1c[nH]cn1)NC(=O)[C@H](CCC(=O)O)NC(=O)[C@H](CCC(N)=O)NC(=O)[C@H](CCC(=O)O)NC(=O)CNC(=O)[C@H](CCCCN)NC(=O)CNC(=O)[C@H](CCC(=O)O)NC(=O)[C@@H]1CCCN1)C(=O)N[C@@H](C)C(=O)N[C@H](C(N)=O)C(C)C` [PSTi8] (H-PEGKGEQEHSQQKEEEEEMAV-NH2), for which the “enhancement of ATPase activity of GRP78 inhibited by PST” value on GRP78 receptor [1] is listed as around 50%. Also, the “effect on blood glucose level” value in the series with C57Bl/6 mice is “did not show any decrease in glucose level”. Moreover, in series [2], the “time up to which plasma concentration was observed” value is reported as at most 6 h. Further, the inhibition at 0.3 µM at GRP78 receptor [3] (PSTi8 300 nM against sulphorhodamine labelled PST 25 nM) was above 50%.
With `CN(C)C(=N)N=C(N)N` [metformin], the “AUC, ipITT” value in series [4] (acute metformin p.o. 300 mg/kg, 30 min before insulin 0.6 IU/kg) turned out to be 19828.5 ± 1004.11 mg·min/dL; in series [4] (chronic metformin p.o. 300 mg/kg for 7 days, insulin 0.6 IU/kg) it was 16417.5 ± 1222.35 mg·min/dL. Besides, the “AUC, i.p GTT” value amounted to 44068.5 ± 3070.1 mg·min/dL in series [5] (acute metformin p.o. 300 mg/kg, 30 min before glucose 1 g/kg) and 36913.13 ± 891.89 mg·min/dL in series [5] (chronic metformin p.o. 300 mg/kg for 7 days, glucose 1 g/kg).
Regarding `CSCC[C@H](NC(=O)[C@H](CCC(=O)O)NC(=O)[C@H](CCC(=O)O)NC(=O)[C@H](CCC(=O)O)NC(=O)[C@H](CCC(=O)O)NC(=O)[C@H](CCC(=O)O)NC(=O)[C@H](CCCCN)NC(=O)[C@H](CCC(N)=O)NC(=O)[C@H](CCC(N)=O)NC(=O)[C@H](CO)NC(=O)[C@H](Cc1c[nH]cn1)NC(=O)[C@H](CCC(=O)O)NC(=O)[C@H](CCC(N)=O)NC(=O)[C@H](CCC(=O)O)NC(=O)CNC(=O)[C@H](CCCCN)NC(=O)CNC(=O)[C@H](CCC(=O)O)NC(=O)[C@@H]1CCCN1)C(=O)N[C@@H](C)C(=O)N[C@H](C(=O)N[C@H](C(=O)N1CCC[C@H]1C(=O)N[C@@H](CCC(N)=O)C(=O)NCC(=O)N[C@@H](CC(C)C)C(=O)N[C@@H](Cc1ccccc1)C(=O)N[C@@H](CCCNC(=N)N)C(=O)NCC(N)=O)C(C)C)C(C)C` [PST, Pancreastatin] (H-PEGKGEQEHSQQKEEEEEMAVVPQGLFRG-NH2), on GRP78 receptor [3] (PST 100 nM against sulphorhodamine labelled PSTi8 150 nM), the inhibition at 0.1 µM was above 50%.
